19 molecules from US11780826B2 (Amgen Inc., priority 2017, dated 2023) can be followed below.

The test system of experiment [1] is Bovine cardiac myofibrils. The experiment is described as follows: In vitro model of dose-dependent myofibril ATPase modulation (AC1.4, pyruvate kinase/lactate dehydrogenase-coupled ATPase assay at pCa25). The conditions noted are these: concentration at which ATPase activity was 1.4-fold higher than the bottom of the dose curve, mean of a minimum of two independent tests. In kind it is biochemical. The essentials: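 Absorbance at 340 nm tracked ATP hydrolysis through pyruvate kinase/lactate dehydrogenase coupling (0.5 mM NADH, 1.5 mM PEP). Myofibrils from detergent-homogenized bovine heart, 1 mM ATP, pH 6.80, EGTA/CaCl2 buffering. Dose-response curves fitted with a four-parameter Hill equation.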

A further experiment relates to Male CD rats. Nature of the experiment: Pressure-volume loop (PV Loop) protocol (invasive hemodynamics): ejection fraction (% EF) during intravenous infusion, MEE. In kind it is in vivo. Also on record: unit not given here. Particulars: exposure at 10% increase in % EF from baseline, rat, corrected for rat plasma protein binding. Here is the method:
Formulations: A compound as disclosed herein and water were admixed together. Either 30% wt/vol or 40% wt/vol of hydroxypropyl beta-cyclodextrin (HPBCD) was added and the mixture stirred until dissolved.
Echocardiography/ultrasound protocol: Serial echocardiography was conducted with the aid of an imaging system suitable for rodent cardiac ultrasound. Male CD rats (6-10 weeks of age; 6-12 animals per group) were cannulated with a jugular vein catheter to enable delivery of test article by intravenous infusion. […] An imaging probe was fixed in position to acquire short axis (SAX), motion (M)—mode images of the left cardiac ventricle at the level of the papillary muscles. Baseline data was acquired prior to initiating test article delivery. Test article (compound as disclosed herein in a HPBCD formulation), or vehicle control, was delivered with the aid of an infusion pump connected to the jugular vein catheter. Infusion rate of test article was increased at 15 min intervals, to a maximum of 5 mL/kg/hr. Ultrasound images were acquired at 5 min intervals. Additionally whole blood (not exceeding 10 uL) was collected via a tail nick at the same 5 min intervals for subsequent exposure determination.
Whole blood samples were analyzed by protein precipitation and liquid chromatography tandem mass spectrometry (LC-MS/MS) using multiple reaction monitoring (MRM) in positive ionization mode. The lower limit of quantitation (LLOQ) in the assay was 1 ng/mL and the upper limit of quantitation (ULOQ) was 10,000 ng/mL.
Pressure-volume loop (PV Loop) protocol (invasive hemodynamics): Left ventricular catheterization with a pressure-volume transducing catheter was applied as an alternative method to derive pharmacodynamic endpoints. A pressure volume conductance catheter was inserted via the left carotid artery and advanced into the left ventricle. The electrical signal emitted from the volume catheter was used to derive measures of relative volume at 5 min intervals. From these measures, left ventricular end diastolic volume (LVEDV) and left ventricular end systolic volume (LVESV) were derived. Ejection fraction was then derived using the following formula: % EF=((LVEDV−LVESV)/LVEDV)*100. Minimally efficacious exposure (MEE) was defined as the exposure at which a 10% increase in % EF from baseline was observed. The MEE was derived by plotting assayed exposures against % EF and using non-linear curve fitting (log(exposure) vs. % EF; variable slope, 4 parameters). Response to vehicle at each time point was averaged and all test article responses were normalized to baseline and subtracted from time matched (averaged) vehicle responses. Animal preparation, vehicle/test article delivery and blood sampling for exposure determination was as described in Echocardiography/ultrasound protocol.

`N#CC1CN(S(=O)(=O)N2CCC[C@H](C(=O)N3CCC[C@@H]3C(=O)NCc3ccc(C(F)(F)F)cc3)C2)C1` [Example 67, 1-(((3S)-1-((3-cyano-1-azetidinyl)sulfonyl)-3-piperidinyl)carbonyl)-N-(4-(trifluoromethyl)benzyl)-D-prolinamide] displayed an AC1.4 in experiment [1] of 0.07786 µM. The “MEE* (unbound), minimally efficacious exposure” value (“MEE* (unbound)” for short) in the experiment with Male CD rats (formulation 40% HPbCD pH 4 NaOH) is on record as 1.05. `N#CC1CN(S(=O)(=O)N2CCC[C@H](C(=O)N3CCC[C@@H]3C(=O)NCc3ccc(Cl)c(Cl)c3)C2)C1` [Example 91, 1-(((3S)-1-((3-cyano-1-azetidinyl)sulfonyl)-3-piperidinyl)carbonyl)-N-(3,4-dichlorobenzyl)-D-prolinamide] returned an AC1.4 in experiment [1] of 0.1384 µM. Moreover, the “MEE* (unbound)” value with Male CD rats (formulation 40% HPbCD) came to 0.04.

For the molecule `CS(=O)(=O)c1cccc(C(=O)N2CCCC[C@@H]2C(=O)N[C@@H](c2cc(F)c(Cl)cc2F)C2CC2)c1` [Example 113, (2R)-N-((R)-(4-chloro-2,5-difluorophenyl)(cyclopropyl)methyl)-1-(3-(methylsulfonyl)benzoyl)-2-piperidinecarboxamide], the AC1.4 in experiment [1] came to 0.1763 µM. Besides, in the experiment on Male CD rats (formulation 40% HPbCD), the “MEE* (unbound)” value is on record as 0.04. Taken in the same sequence, the figures for `C[C@@H](NC(=O)[C@H]1CCCN1C(=O)[C@H]1CCCN(S(=O)(=O)N2CC(C#N)C2)C1)c1ccc(Cl)cc1` [Example 135, N-((1R)-1-(4-chlorophenyl)ethyl)-1-(((3S)-1-((3-cyano-1-azetidinyl)sulfonyl)-3-piperidinyl)carbonyl)-D-prolinamide] were 0.2215 µM and 0.05. Taken in the same sequence, the figures for `N#CC1CN(S(=O)(=O)N2CCN[C@H](C(=O)N3CCC[C@@H]3C(=O)NCc3ccc(C(F)(F)F)cc3F)C2)C1` [Example 200, 1-(((2S)-4-((3-cyano-1-azetidinyl)sulfonyl)-2-piperazinyl)carbonyl)-N-(2-fluoro-4-(trifluoromethyl)benzyl)-D-prolinamide] were 0.4083 µM and 1.02. Taken in the same sequence, the figures for `N#CC1CN(S(=O)(=O)N2CCC[C@H](C(=O)N3CCC[C@@H]3C(=O)NCc3ccc(C(F)F)cc3)C2)C1` [Example 261, 1-(((3S)-1-((3-cyano-1-azetidinyl)sulfonyl)-3-piperidinyl)carbonyl)-N-(4-(difluoromethyl)benzyl)-D-prolinamide] were 0.6461 µM and 0.16. `N#CC1CN(S(=O)(=O)N2CCC[C@H](C(=O)N3CCC[C@@H]3C(=O)NCc3cc(F)cc(F)c3)C2)C1` [Example 287, 1-(((3S)-1-((3-cyano-1-azetidinyl)sulfonyl)-3-piperidinyl)carbonyl)-N-(3,5-difluorobenzyl)-D-prolinamide] showed an AC1.4 in experiment [1] of 0.7212 µM. Besides, in the experiment with Male CD rats (formulation 40% HPbCD), the “MEE* (unbound)” value came to 0.47. Taken in the same sequence, the figures for `C[C@@H](NC(=O)[C@H]1CCCN1C(=O)[C@H]1CCCN(S(=O)(=O)N2CC(C#N)C2)C1)c1ccc(F)c(F)c1` [Example 301, 1-(((3S)-1-((3-cyano-1-azetidinyl)sulfonyl)-3-piperidinyl)carbonyl)-N-((1R)-1-(3,4-difluorophenyl)ethyl)-D-prolinamide] were 0.7943 µM and 0.19. The like results for `C[C@@H](NC(=O)[C@H]1CCCN1C(=O)[C@H]1CCCN(S(=O)(=O)N2CC(C#N)C2)C1)c1ccc(F)cc1F` [Example 325, 1-(((3S)-1-((3-cyano-1-azetidinyl)sulfonyl)-3-piperidinyl)carbonyl)-N-((1R)-1-(2,4-difluorophenyl)ethyl)-D-prolinamide] were, in that order, 0.8883 µM and 0.41. `O=C(N[C@@H](c1cc(F)c(C(F)(F)F)cc1F)C1CC1)[C@H]1C[C@H]2C[C@H]2N1C(=O)c1cc(Cl)cc2cn[nH]c12` [Example 821, (1R,3R,5R)-2-(5-chloro-1H-indazole-7-carbonyl)-N-((R)-cyclopropyl(2,5-difluoro-4-(trifluoromethyl)phenyl)methyl)-2-azabicyclo[3.1.0]hexane-3-carboxamide]: the AC1.4 in experiment [1] is 1.2142 µM. Same read-out and setting: the same measure for `Cc1cc(C(=O)N2[C@@H](C(=O)N[C@@H](c3cc(F)c(C(F)(F)F)cc3F)C3CC3)C[C@H]3C[C@H]32)c(C(C)O)cn1` (stereo partly drawn) [Example 822, (1R,3R,5R)-N-((R)-cyclopropyl(2,5-difluoro-4-(trifluoromethyl)phenyl)methyl)-2-(5-(l-hydroxyethyl)-2-methylisonicotinoyl)-2-azabicyclo[3.1.0]hexane-3-carboxamide]: 5.894 µM.

Consider `O=C(N[C@@H](c1cc(F)c(C(F)(F)F)cc1F)C1COC1)[C@H]1C[C@H]2C[C@H]2N1C(=O)c1cc(C(F)(F)F)on1` [Example 823, (1R,3R,5R)-N-((R)-(2,5-difluoro-4-(trifluoromethyl)phenyl)(oxetan-3-yl)methyl)-2-(5-(trifluoromethyl)isoxazole-3-carbonyl)-2-azabicyclo[3.1.0]hexane-3-carboxamide], for which the AC1.4 in experiment [1] came out at 2.768 µM. The same measure, in the same setting: for `Cc1noc(C(=O)N2[C@@H](C(=O)N[C@@H](c3cc(F)c(C(F)(F)F)cc3F)C3COC3)C[C@H]3C[C@H]32)c1C` [Example 824, (1R,3R,5R)-N-((R)-(2,5-difluoro-4-(trifluoromethyl)phenyl)(oxetan-3-yl)methyl)-2-(3,4-dimethylisoxazole-5-carbonyl)-2-azabicyclo[3.1.0]hexane-3-carboxamide] the value was 8.874 µM. Turning to `Cc1noc(C)c1C(=O)N1[C@@H](C(=O)N[C@@H](c2cc(F)c(C(F)(F)F)cc2F)C2COC2)C[C@H]2C[C@H]21` [Example 825, (1R,3R,5R)-N-((R)-(2,5-difluoro-4-(trifluoromethyl)phenyl)(oxetan-3-yl)methyl)-2-(3,5-dimethylisoxazole-4-carbonyl)-2-azabicyclo[3.1.0]hexane-3-carboxamide], in experiment [1], the AC1.4 worked out at 9.3793 µM. On the same count and under the same terms, the same measure for `O=C(N[C@@H](c1cc(F)c(C(F)(F)F)cc1F)C1COC1)[C@H]1C[C@H]2C[C@H]2N1C(=O)c1cc(C(F)(F)F)no1` [Example 826, (1R,3R,5R)-N-((R)-(2,5-difluoro-4-(trifluoromethyl)phenyl)(oxetan-3-yl)methyl)-2-(3-(trifluoromethyl)isoxazole-5-carbonyl)-2-azabicyclo[3.1.0]hexane-3-carboxamide]: 2.628 µM; for `CS(=O)(=O)c1cccc(C(=O)N2CCC[C@@H]2C(=O)N[C@@H](c2cc(F)c(C(F)(F)F)cc2F)[C@H]2C[C@@H](O)C2)c1` [Example 827, (R)-N-((R)-(2,5-difluoro-4-(trifluoromethyl)phenyl)((1s,3S)-3-hydroxycyclobutyl)methyl)-1-(3-(methylsulfonyl)benzoyl)pyrrolidine-2-carboxamide]: 0.15 µM.

As for `CS(=O)(=O)c1cccc(C(=O)N2CCC[C@@H]2C(=O)N[C@@H](c2cc(F)c(C(F)(F)F)cc2F)[C@H]2C[C@H](O)C2)c1` [Example 828, (R)-N-((R)-(2,5-difluoro-4-(trifluoromethyl)phenyl)((lr,3R)-3-hydroxycyclobutyl)methyl)-1-(3-(methylsulfonyl)benzoyl)pyrrolidine-2-carboxamide], the AC1.4 in experiment [1] stood at 0.1639 µM. The same measure, in the same setting: for `CC1(O)CC([C@@H](NC(=O)[C@H]2C[C@H]3C[C@H]3N2C(=O)c2cccc(S(C)(=O)=O)c2)c2cc(F)c(C(F)(F)F)cc2F)C1` (stereo partly drawn) [Example 829, (1R,3R,5R)-N-((R)-(2,5-difluoro-4-(trifluoromethyl)phenyl)(3-hydroxy-3-methylcyclobutyl)methyl)-2-(3-(methylsulfonyl)benzoyl)-2-azabicyclo[3.1.0]hexane-3-carboxamide] the value was 1.702 µM. In experiment [1], `O=C(N[C@@H](c1cc(F)c(C(F)(F)F)cc1F)[C@H]1C[C@H](O)C1)[C@H]1C[C@H]2C[C@H]2N1C(=O)c1ccnc(C(F)F)c1` [Example 831, (1R,3R,5R)-N-((R)-(2,5-difluoro-4-(trifluoromethyl)phenyl)((lr,3R)-3-hydroxycyclobutyl)methyl)-2-(2-(difluoromethyl)isonicotinoyl)-2-azabicyclo[3.1.0]hexane-3-carboxamide] registered an AC1.4 of 0.6115 µM.
